Experimental data from PubChem BioAssay AID179 (DTP/NCI, 2004).
Calls of active or inactive are those of the source.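 The calls were made as follows: active = compounds giving half or more protection of infected cells from virus-caused growth loss, again on retest; inactive = the rest.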 *1 amine or outer side, *2 acyl side, *3 side chain or, on linkers, in order; H or OH if unused. Where a SMILES comes first, the peptide text is derived from it. Bridges are numbered along the chain shown (N, C = ends). [ ]: non-standard residue; d: D form. The star is where a group is joined. ξ: configuration not given here. Fmoc = O=C(OCC1c2ccccc2-c2ccccc21)*; X2 = O=C(C(CCCCNO[*:3])N[*:1])[*:2]; ξW = NC(Cc1c[nH]c2ccccc12)C(=O)O; ξP = O=C(O)C1CCCN1

System: CEM cells HIV-1 protection, formazan growth assay
Experiment: NCI AIDS Antiviral Assay
Conditions: for IC50: measured here: growth of uninfected CEM cells
In short: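 Steps: treat uninfected and HIV-1-infected human CEM cells at five drug levels; quantify growth by soluble formazan; retest any compound reaching 50% protection; classify actives from the retest.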

| SMILES | EC50 [µM] | IC50 [µM] | outcome |
| --- | --- | --- | --- |
| CC1=C2NCN(C)N=C2C(C#N)(C#N)C1(C#N)C#N | > 200 | 10.5 |  |
| Cc1cc(S(=O)(=O)Nc2nnc3c4c(C)csc4ncn23)c(S)cc1Cl | > 200 | 110 |  |
| COc1cccc2c(Nc3ccc(S(=O)(=O)N=C(N)N)cc3)c3ccc([N+](=O)[O-])cc3nc12 | > 200 | 11 |  |
| CCCC(=O)NC(Nc1cc(C)ccn1)(C(=O)OCC)C(F)(F)F (configuration not stated) | 105 | 501 |  |
| CC(O)CN(N)CC(C)O (configuration not stated) |  |  | inactive |
| CN1CC(=O)N(C)c2ncn(Cc3ccccc3)c2C1=O |  |  | inactive |
| CC(=O)NC(/C=C\C(=O)O)C(=O)O (configuration not stated) | > 200 | > 200 |  |
| CCC(NC1=NCCO1)c1cccs1 (configuration not stated) | > 200 | 79.4 |  |
| CN(NC(=O)c1ccco1)C1=NCCCCN1 | > 200 | > 200 |  |
| CC(C)(C)[Si](C)(C)OCC1OC(n2ccc(=O)[nH]c2=O)C/C1=N/O (configuration not stated) | > 200 | 74.1 |  |
| O=c1c(SCc2ccc(Cl)c(Cl)c2)c(SCc2ccc(Cl)c(Cl)c2)cnn1-c1ccccc1 | > 6.76 | > 6.76 |  |
| Oc1cc(Cc2ccccc2)c(Cc2ccccc2)cc1O | > 200 | 34.7 |  |
| CC(C)(C)[Si](C)(C)OCC1OC(n2ccc(=O)[nH]c2=O)/C(=C\C#N)C1O[Si](C)(C)C(C)(C)C (configuration not stated) | > 200 | 35.5 |  |
| CCSc1ccc2c3c(cccc13)C(=O)N(CCc1ccccn1)C2=O | > 200 | > 200 |  |
| CCN(CC)CN1C(=O)C(=O)c2ccccc21 | > 200 | > 200 |  |
| Cc1cc(=S)oc2c3c(ccc12)OC(C)(C)[C@H](OC(=O)C12CCC(C)(C(=O)O1)C2(C)C)[C@@H]3OC(=O)C12CCC(C)(C(=O)O1)C2(C)C (some centres not stated) | 0.0575 | 20 |  |
| Cc1nc2ccc(S(=O)(=O)Nc3ccccc3)cc2c(=O)n1NC(=O)CNc1ccccc1 | > 200 | 186 |  |
| O=c1[nH]c(=O)n(C2CC(O)C(CO)O2)cc1OCC1CCCCC1 (configuration not stated) | > 200 | > 200 |  |
| CCC(=O)NC(Nc1ccc(O)cc1)(C(F)(F)F)C(F)(F)F | > 200 | 46.8 |  |
| O=C(CC1(CC(=O)NCc2ccccc2)OCCO1)NCc1ccccc1 |  |  | inactive |
| CCN(CC)c1ccc(/C=C/c2n(-c3ccccc3)c3ccccc3[n+]2C)cc1 | > 2 | 0.115 |  |

| SMILES | EC50 [µM] | IC50 [µM] | outcome |
| --- | --- | --- | --- |
| S=c1ncc2n[nH]nc2[nH]1 | > 200 | > 200 |  |
| COc1cc(Oc2nc3c(N)cc(C(F)(F)F)cc3nc2-c2ccccc2)cc(OC)c1OC | > 20 | 14.1 |  |
| CCN(CC)C1=CC(=O)n2cccc21 | > 200 | > 200 |  |
| Cc1cc(S(=O)(=O)Nc2n[nH]c(N)n2)c(Cl)cc1Cl | > 200 | > 200 |  |
| CCOC(=O)c1nc2c(Cl)c3ncccc3cc2[nH]c1=O | > 200 | 12 |  |
| C=C1C(C(=O)OC)[C@H]1C(=O)OC (some centres not stated) | 5.5 | > 200 |  |
| CCOP(=O)(OCC)/C(C#N)=C\c1ccsc1 | > 912 | > 912 |  |
| CCOC(=O)c1ccc(N2N=NC3C4CC(C5CCCC54)C32)cc1 (configuration not stated) | > 200 | > 200 |  |
| c1cncc(CSc2nc3ccccc3nc2-c2cccs2)c1 | > 1.55 | > 1.55 |  |
| O=C(Nc1ccc(N=Nc2ccc(O)c(C(=O)O)c2)cc1)Nc1ccc(N=Nc2ccc(O)c(C(=O)O)c2)cc1 | > 200 | 141 |  |
| CN(NC(=O)c1cccs1)C1=NCCN1 | > 200 | > 200 |  |
| Cc1cc(C)nc(NS(=O)(=O)c2ccc(Nc3c4ccccc4nc4c(C(=O)N5CCN(CCOS(C)(=O)=O)CC5)cccc34)cc2)n1 | > 42.7 | > 42.7 |  |
| Fc1ccccc1C1SCc2nc3ncccc3n21 (configuration not stated) | > 95.5 | > 95.5 |  |
| CN(C)CCNC1c2ccccc2CCc2ccccc21 |  |  | inactive |
| CN(C)c1ccc(C(C2=C(O)c3ccccc3C(=O)C2=O)C2=C(O)c3ccccc3C(=O)C2=O)cc1 | > 200 | 30.9 |  |
| Oc1ccc(N=C2N=c3c(c4ccccc4c4ccccc34)=N2)c2ccccc12 | > 200 | 4.57 |  |
| O=c1cc(NNc2ccccc2F)[nH]c(=O)[nH]1 | > 200 | 1.78 |  |
| CN(C)CCN1C(=O)c2c(c3cccn3c3c2cnn3-c2ccccc2)C1=O | > 200 | > 200 |  |
| O=S(=O)(c1ccccc1)N1CC2CC(Br)C(Br)CC21 (configuration not stated) | > 45.7 | > 45.7 |  |
| Cc1cc2c(cc1C)[n+](=O)c(C(=O)C/C(=N/NC(=O)c1ccccc1O)C(=O)Nc1ccccc1C(C)C)c(C)n2[O-] | > 229 | 75.9 |  |
| Nc1ccn(C2CCC3(CO)CC23)c(=O)n1 (configuration not stated) | > 50.1 | > 50.1 |  |

| SMILES | EC50 [µM] | IC50 [µM] | outcome |
| --- | --- | --- | --- |
| COC12C[C@H]3CCC([C@H](C)c4ccc5c(c41)CC1[C@H]5C[C@@H](O)C4C[C@@H](O)CC[C@@]41C)N2C3 (some centres not stated) | > 40.7 | > 40.7 |  |
| O=C1NC(O)c2cccc(Cl)c2O1 (configuration not stated) |  |  | inactive |
| COc1cc(/C=C2\CCC(C)C3=C2N=c2s/c(=C/c4ccc(Cl)cc4)c(=O)n2C3c2cc(OC)c(OC)c(OC)c2)cc(OC)c1OC (configuration not stated) | > 200 | 102 |  |
| CCCCCOC(=O)c1cccc(NC(=O)CN(CC)CC)c1 | > 200 | 95.5 |  |
| Cc1ccc2ccc3ccc(C)nc3c2n1.Cc1ccc2ccc3ccc(C)nc3c2n1.O=C1OC(C(O)C[O-])C(O)=C1O.[Cu+] | > 12.6 | 0.0871 |  |
| O=c1ccn(C2CC(O)C(CO)O2)c(=O)[nH]1 (configuration not stated) | > 589 | 309 |  |
| SCc1ccc(CS)s1 | > 741 | > 741 |  |
| N#C/C(=C/c1ccc(Cl)cc1)c1ccc(Cl)cc1 | > 200 | 195 |  |
| O=C(O)COc1ccc(C(=O)/C(SS/C(C(=O)c2ccc(OCC(=O)O)c(Cl)c2Cl)=C2\C=C(c3ccc(Br)cc3)SS2)=C2/C=C(c3ccc(Br)cc3)SS2)c(Cl)c1Cl |  |  | inactive |
| CCCCCCN1CCN(Cc2ccc(N(CC)CC)cc2)C(=O)C1=O | > 200 | 0.977 |  |
| Cn1c2ccccc2c2cc(-c3ccccc3)c3c(c21)C(=O)C=CC3=O | > 77.6 | 2.57 |  |
| CCC(C)C(NC(=O)C(CCCN=C(N)N)NC(=O)C(CC(=O)O)NC(=O)C(Cc1ccc(O)cc1)NC(=O)C(N)CC(C)C)C(=O)NC(C(=O)NC(CC(C)C)C(=O)NC(CCCN=C(N)N)C(=O)NC(Cc1ccc(O)cc1)C(=O)O)C(C)CC (configuration not stated) (H-LYDRIILRY-OH; configuration not given here) | > 10.2 | > 10.2 |  |
| Cc1nc2c(=O)[nH]c3ccc(Cl)cc3c2o1 | > 200 | 148 |  |
| Cc1ccccc1N1C(=O)C2C=CC(n3[nH]c(=O)n(Cc4ccccc4)c3=O)CC2C1=O (configuration not stated) | > 219 | > 219 |  |
| CC1=C2C(=CC(C)(CO)C2O)C(=O)C(C)(O)C12CC2 (configuration not stated) |  |  | inactive |
| O=C=Nc1cc(S(=O)(=O)c2ccc(Cl)c(N=C=O)c2)ccc1Cl | > 200 | > 200 |  |
| CCCCCCn1c(SCC)c2ccccc2c1-c1nc(F)nc(F)n1 | > 2.75 | > 2.75 |  |
| Cn1c(=O)c2c(no[n+]2[O-])n(C)c1=O | > 200 | 13.2 |  |
| O=c1[nH]c(Nc2cccc(Br)c2)nc2nc[nH]c12 | > 200 | > 100 |  |
| O=c1[nH]c2nccn2c2c1SCCN2 | > 200 | > 200 |  |
| S=C1NC2=C(CSC/C2=C\c2cccc(Br)c2)C(c2cccc(Br)c2)N1 (configuration not stated) | > 200 | 19.5 |  |

| SMILES | EC50 [µM] | IC50 [µM] | outcome |
| --- | --- | --- | --- |
| CN1CCc2cc(O)c3cc2C1Cc1ccc(cc1)Oc1cc(ccc1OC(=O)C(C)(C)C)CC1c2c(cc(OC(=O)C(C)(C)C)c(OC(=O)C(C)(C)C)c2O3)CCN1C (configuration not stated) |  |  | inactive |
| Cc1ccc(/C=N/Nc2nc3ccccc3s2)s1 | > 200 | 67.6 |  |
| NC(=O)CNC(=O)C1CCCN1C(=O)C1CCCCNOC(=O)CC[C@@H](NC(=O)OCC2c3ccccc3-c3ccccc32)C(=O)NC(Cc2c[nH]c3ccccc23)C(=O)N1 (some centres not stated) (Fmoc-[dE][ξW][X2][ξP]G-NH2; ester 1-3) | > 100 | > 100 |  |
| Fc1cccc(C2SCc3nc4ccccc4n32)c1F (configuration not stated) |  |  | inactive |
| CCOC(=O)c1c(N2CCOCC2)[nH]c(=O)c(C(c2ccc(N(C)C)cc2)c2c(O)c(C(=O)OCC)c(N3CCOCC3)[nH]c2=O)c1O | > 200 | > 200 |  |
| Cc1ccnn1CCc1ccc(Cl)cc1Cl | > 200 | 95.5 |  |
| COC(=O)c1ccc(C(=O)OC)c2nc3cc(Cl)ccc3nc12 | > 30.2 | > 30.2 |  |
| CC(C)(C)OC(=O)NC(Cc1cnc[nH]1)C(=O)N1CCCC1C(N)=O (configuration not stated) | > 200 | > 200 |  |
| CCCCCCCCC=CCCCCCCCC(=O)O[C@H](COC(=O)CCCCCCC/C=C\CCCCCCCC)COP(=O)(O)OCCNC(=O)CCC(=O)OCCC=C(c1cc(Cl)c(OC)c(C(=O)OC)c1)c1cc(Cl)c(OC)c(C(=O)OC)c1 | > 100 | 60.3 |  |
| CC#N.CC#N.COC(=O)[C@@H]1CN(C(=O)Cc2ccccc2)C(=O)[N-]1.COC(=O)[C@@H]1CN(C(=O)Cc2ccccc2)C(=O)[N-]1.COC(=O)[C@@H]1CN(C(=O)Cc2ccccc2)C(=O)[N-]1.COC(=O)[C@@H]1CN(C(=O)Cc2ccccc2)C(=O)[N-]1.[Rh+2].[Rh+2] | > 12 | 11 |  |
| Cc1cc(-c2cc(C)c(N)c(S(=O)(=O)O)c2)cc(S(=O)(=O)O)c1N |  |  | inactive |
| COc1ccc(N2C(=O)C3c4[nH]c5ccc(F)cc5c4C4CCC(C(C)(C)C)CC4C3C2=O)cc1 (configuration not stated) | > 200 | 22.4 |  |
| COc1ccc2c(c1OC)CC1COCC21 (configuration not stated) | > 200 | > 200 |  |
| COC(OC)C1(c2ccccc2)Oc2ccccc2C1=O (configuration not stated) | > 166 | 81.3 |  |
| CCOC(=O)C1c2[nH]c3ccccc3c2CCN1C(=O)c1ccc(OC)o1 (configuration not stated) | > 51.3 | 38.9 |  |
| COC(=O)Cc1ccc2c(c1)Sc1ccc(CC(=O)OC)cc1N2C | > 200 | 4.47 |  |
| Cn1cnc2ccccc2c1=S | > 200 | 182 |  |
| CCCN(CCC)C(=O)c1c(N2CCN(C)CC2)c2cccnc2n2c(C)cnc12 | > 200 | > 200 |  |
